Assays:
[1] = 298.15 K; 101.33 kPa; Liquid; Vibrating tube method
[2] = refractive index (Na D-line) (dimensionless); settings: 298.15 K; 101.33 kPa; Liquid; Standard Abbe refractometry
[3] = excess molar enthalpy (molar enthalpy of mixing); xn = mol fraction of the nth substance listed; settings: 298.15 K, 98.8 kPa, Liquid, Calvet calorimetry
[4] = xn = mol fraction of the nth substance listed; settings: 298.15 K, 98.8 kPa, Liquid, Vibrating tube method

CCCCCCCCCC [decane]
Settings | mass density [kg/m3] | refractive index
[1] | 726.61 | –
[2] | – | 1.41

CCCCCCCCCC [decane] + CCCCCCCCCC(=O)OC
Settings | excess molar enthalpy [kcal/mol]
[3], x2 = 0 | 0

CCCCCCCCCCCC [dodecane]
Settings | mass density [kg/m3] | refractive index
[1] | 745.2 | –
[2] | – | 1.4197

CCCCCCCCCCCC [dodecane] + CCCCCCCCCC(=O)OC
x2 = 0
Settings | excess molar enthalpy [kcal/mol] | mass density [kg/m3]
[3] | 0 | –
[4] | – | 745.2

CCCCCCCCCCCCCCCC [hexadecane]
Settings | mass density [kg/m3] | refractive index
[1] | 769.8 | –
[2] | – | 1.4323

CCCCCCCCCCCCCCCC [hexadecane] + CCCCCCCCCC(=O)OC
x2 = 0
Settings | excess molar enthalpy [kcal/mol] | mass density [kg/m3]
[3] | 0 | –
[4] | – | 769.8

CCCCCC [hexane]
Settings | mass density [kg/m3] | refractive index
[1] | 654.81 | –
[2] | – | 1.3725

CCCCCC [hexane] + CCCCCCCCCC(=O)OC
Settings | excess molar enthalpy [kcal/mol]
[3], x2 = 0 | 0

CCCCCCCCCC(=O)OC [methyl decanoate]
Settings | mass density [kg/m3] | refractive index
[1] | 868.02 | –
[2] | – | 1.4235

CCCCCCCCCC(=O)OC [methyl decanoate] + CCCCCC
[3]
Settings | excess molar enthalpy [kcal/mol]
x1 = 0.0479 | 0.0382
x1 = 0.0943 | 0.0636
x1 = 0.1448 | 0.081
x1 = 0.1927 | 0.105
x1 = 0.2477 | 0.114
x1 = 0.3077 | 0.123
x1 = 0.3542 | 0.126
x1 = 0.4059 | 0.125
x1 = 0.4574 | 0.12
x1 = 0.5055 | 0.113
x1 = 0.5557 | 0.107
x1 = 0.6037 | 0.0985
x1 = 0.6531 | 0.088
x1 = 0.7032 | 0.077
x1 = 0.752 | 0.0679
x1 = 0.8028 | 0.0543
x1 = 0.8496 | 0.0399
x1 = 0.9014 | 0.0277
x1 = 0.9328 | 0.0174
x1 = 1 | 0

CCCCCCCCCC(=O)OC [methyl decanoate] + CCCCCCCC
[3]
Settings | excess molar enthalpy [kcal/mol]
x1 = 0.0551 | 0.0394
x1 = 0.1035 | 0.0691
x1 = 0.154 | 0.0949
x1 = 0.2078 | 0.113
x1 = 0.2514 | 0.127
x1 = 0.3088 | 0.137
x1 = 0.3584 | 0.143
x1 = 0.399 | 0.147
x1 = 0.4514 | 0.146
x1 = 0.5051 | 0.143
x1 = 0.5555 | 0.137
x1 = 0.599 | 0.131
x1 = 0.657 | 0.115
x1 = 0.7066 | 0.103
x1 = 0.7511 | 0.0913
x1 = 0.8069 | 0.0712
x1 = 0.8577 | 0.0533
x1 = 0.9098 | 0.0351
x1 = 0.9561 | 0.0167
x1 = 1 | 0

CCCCCCCCCC(=O)OC [methyl decanoate] + CCCCCCCCCC
[3]
Settings | excess molar enthalpy [kcal/mol]
x1 = 0.0469 | 0.033
x1 = 0.0985 | 0.0662
x1 = 0.1523 | 0.0915
x1 = 0.2018 | 0.115
x1 = 0.2537 | 0.133
x1 = 0.3062 | 0.15
x1 = 0.3563 | 0.156
x1 = 0.4008 | 0.16
x1 = 0.4543 | 0.162
x1 = 0.5058 | 0.159
x1 = 0.5498 | 0.156
x1 = 0.6017 | 0.146
x1 = 0.6524 | 0.133
x1 = 0.7078 | 0.114
x1 = 0.7597 | 0.0994
x1 = 0.8086 | 0.0813
x1 = 0.8592 | 0.0607
x1 = 0.9058 | 0.0406
x1 = 0.9566 | 0.0151
x1 = 1 | 0

CCCCCCCCCC(=O)OC [methyl decanoate] + CCCCCCCCCCCC
Settings | excess molar enthalpy, [3] [kcal/mol] | mass density, [4] [kg/m3]
x1 = 0.05 | – | 750.68
x1 = 0.0512 | 0.0394 | –
x1 = 0.1 | – | 756.24
x1 = 0.1129 | 0.076 | –
x1 = 0.1503 | – | 761.93
x1 = 0.1513 | 0.101 | –
x1 = 0.1998 | – | 767.59
x1 = 0.2021 | 0.119 | –
x1 = 0.25 | – | 773.38
x1 = 0.2513 | 0.141 | –
x1 = 0.299 | 0.152 | –
x1 = 0.3001 | – | 779.28
x1 = 0.3506 | – | 785.27
x1 = 0.3572 | 0.163 | –
x1 = 0.3996 | – | 791.16
x1 = 0.4051 | 0.169 | –
x1 = 0.4473 | 0.172 | –
x1 = 0.4497 | – | 797.22
x1 = 0.5002 | – | 803.37
x1 = 0.5033 | 0.172 | –
x1 = 0.55 | – | 809.54
x1 = 0.5502 | 0.169 | –
x1 = 0.5952 | 0.163 | –
x1 = 0.5998 | – | 815.74
x1 = 0.6499 | – | 822.04
x1 = 0.652 | 0.15 | –
x1 = 0.6994 | – | 828.35
x1 = 0.7089 | 0.132 | –
x1 = 0.7495 | – | 834.79
x1 = 0.7524 | 0.117 | –
x1 = 0.7996 | – | 841.3
x1 = 0.8098 | 0.0954 | –
x1 = 0.8493 | – | 847.78
x1 = 0.8525 | 0.0731 | –
x1 = 0.8997 | – | 854.45
x1 = 0.9019 | 0.0485 | –
x1 = 0.9496 | – | 861.18
x1 = 0.9586 | 0.0196 | –
x1 = 1 | 0 | 868.02

CCCCCCCCCC(=O)OC [methyl decanoate] + CCCCCCCCCCCCCC
Settings | excess molar enthalpy, [3] [kcal/mol] | mass density, [4] [kg/m3]
x1 = 0.0498 | – | 763.35
x1 = 0.0633 | 0.0497 | –
x1 = 0.0922 | 0.0712 | –
x1 = 0.1001 | – | 767.69
x1 = 0.1502 | – | 772.18
x1 = 0.1577 | 0.108 | –
x1 = 0.1964 | 0.126 | –
x1 = 0.1998 | – | 776.73
x1 = 0.2496 | – | 781.41
x1 = 0.258 | 0.152 | –
x1 = 0.2999 | – | 786.24
x1 = 0.3045 | 0.163 | –
x1 = 0.3501 | – | 791.21
x1 = 0.3597 | 0.176 | –
x1 = 0.3944 | 0.184 | –
x1 = 0.4001 | – | 796.26
x1 = 0.4492 | 0.19 | –
x1 = 0.4498 | – | 801.43
x1 = 0.5001 | – | 806.77
x1 = 0.5076 | 0.19 | –
x1 = 0.5498 | – | 812.19
x1 = 0.5535 | 0.185 | –
x1 = 0.5997 | – | 817.76
x1 = 0.607 | 0.173 | –
x1 = 0.6499 | – | 823.51
x1 = 0.6586 | 0.161 | –
x1 = 0.6999 | – | 829.37
x1 = 0.7089 | 0.146 | –
x1 = 0.7501 | – | 835.45
x1 = 0.7542 | 0.131 | –
x1 = 0.799 | – | 841.48
x1 = 0.8009 | 0.115 | –
x1 = 0.8477 | 0.0946 | –
x1 = 0.849 | – | 847.78
x1 = 0.8974 | 0.0676 | –
x1 = 0.8992 | – | 854.34
x1 = 0.9455 | 0.0423 | –
x1 = 0.95 | – | 861.12
x1 = 1 | 0 | 868.02

CCCCCCCCCC(=O)OC [methyl decanoate] + CCCCCCCCCCCCCCCC
Settings | excess molar enthalpy, [3] [kcal/mol] | mass density, [4] [kg/m3]
x1 = 0.0499 | – | 773.1
x1 = 0.0636 | 0.0471 | –
x1 = 0.0998 | – | 776.6
x1 = 0.1131 | 0.081 | –
x1 = 0.1501 | – | 780.26
x1 = 0.1619 | 0.107 | –
x1 = 0.2 | – | 783.98
x1 = 0.201 | 0.129 | –
x1 = 0.2497 | – | 787.88
x1 = 0.2575 | 0.153 | –
x1 = 0.3006 | – | 791.99
x1 = 0.3056 | 0.17 | –
x1 = 0.3497 | – | 796.11
x1 = 0.3584 | 0.184 | –
x1 = 0.398 | 0.195 | –
x1 = 0.4001 | – | 800.47
x1 = 0.4494 | 0.198 | –
x1 = 0.45 | – | 804.97
x1 = 0.4955 | 0.198 | –
x1 = 0.4997 | – | 809.64
x1 = 0.5479 | 0.195 | –
x1 = 0.5502 | – | 814.55
x1 = 0.5983 | 0.188 | –
x1 = 0.5995 | – | 819.57
x1 = 0.6494 | 0.177 | –
x1 = 0.6501 | – | 824.85
x1 = 0.6996 | – | 830.28
x1 = 0.7034 | 0.163 | –
x1 = 0.7497 | – | 835.95
x1 = 0.7512 | 0.145 | –
x1 = 0.7997 | – | 841.91
x1 = 0.8015 | 0.126 | –
x1 = 0.8489 | – | 847.93
x1 = 0.8493 | 0.102 | –
x1 = 0.8992 | – | 854.43
x1 = 0.8995 | 0.0707 | –
x1 = 0.9494 | – | 861.11
x1 = 0.9495 | 0.0366 | –
x1 = 1 | 0 | 868.02

CCCCCCCC [octane]
Settings | mass density [kg/m3] | refractive index
[1] | 698.45 | –
[2] | – | 1.3955

CCCCCCCC [octane] + CCCCCCCCCC(=O)OC
Settings | excess molar enthalpy [kcal/mol]
[3], x2 = 0 | 0

CCCCCCCCCCCCCC [tetradecane]
Settings | mass density [kg/m3] | refractive index
[1] | 759.17 | –
[2] | – | 1.4273

CCCCCCCCCCCCCC [tetradecane] + CCCCCCCCCC(=O)OC
x2 = 0
Settings | excess molar enthalpy [kcal/mol] | mass density [kg/m3]
[3] | 0 | –
[4] | – | 759.17

Source: the NIST ThermoML archive (doi:10.1021/acs.jced.9b00185)
